# Measurements from the supplement of paper PMC10307832.
# Experiments:
# Assay in all cases: relative viability (nuclei count vs DMSO), 5 days (fraction); higher = more cells survive
# [1] = compound: CC1=C(C(=NN1)C)CC2=C(C3=C(S2)N(C(=O)N(C3=O)C)CC(C)C)C(=O)N4C[C@@H](CO4)O + CC(=O)c1c(C)c2cnc(Nc3ccc(N4CCNCC4)cn3)nc2n(C2CCCC2)c1=O [Palbociclib] (partner 0.5 µM)
# Outline: (§1)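 The day after seeding in 1536-well plates, lung cancer cell lines were treated by pin tool with a single drug, or with a fixed anchor-drug dose together with five library-drug doses (not always all listed) in √10 steps. After 5 days, a combined fix-and-stain solution (final 0.05% Triton X-100, 1% formaldehyde, 1 ug/ml Hoechst) was added. Nuclei counted on 4× images gave relative viability as treated counts over vehicle counts, reported as the median of duplicate plates.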
# IDH-C35 + Bortezomib = compound: Cc1ccccc1C(C(=O)NC1CCCCC1)N(C(=O)Cn1ccnc1C)c1cccc(F)c1 [IDH-C35] + CC(C)C[C@H](NC(=O)[C@H](Cc1ccccc1)NC(=O)c1cnccn1)B(O)O [Bortezomib] (partner 0.002 µM)
# Outline: as §1
# [2] = compound: CC1=C(C(=NN1)C)CC2=C(C3=C(S2)N(C(=O)N(C3=O)C)CC(C)C)C(=O)N4C[C@@H](CO4)O + C[C@@H](Oc1cc(-c2cnn(C3CCNCC3)c2)cnc1N)c1c(Cl)ccc(F)c1Cl [Crizotinib] (partner 1 µM)
# Outline: as §1
# IDH-C35 + Vorinostat = compound: Cc1ccccc1C(C(=O)NC1CCCCC1)N(C(=O)Cn1ccnc1C)c1cccc(F)c1 [IDH-C35] + O=C(CCCCCCC(=O)Nc1ccccc1)NO [Vorinostat] (partner 1 µM)
# Outline: as §1
Cell Line,relative viability ([1]; first compound 0.0025 µM),relative viability ([1]; first compound 0.007906 µM),relative viability ([1]; first compound 0.025 µM),relative viability ([1]; first compound 0.07906 µM),relative viability ([1]; first compound 0.25 µM),relative viability (IDH-C35 + Bortezomib; first compound 0.08 µM),relative viability (IDH-C35 + Bortezomib; first compound 0.253 µM),relative viability (IDH-C35 + Bortezomib; first compound 0.8 µM),relative viability (IDH-C35 + Bortezomib; first compound 2.53 µM),relative viability (IDH-C35 + Bortezomib; first compound 8 µM),relative viability ([2]; first compound 0.0025 µM),relative viability ([2]; first compound 0.007906 µM),relative viability ([2]; first compound 0.025 µM),relative viability ([2]; first compound 0.07906 µM),relative viability ([2]; first compound 0.25 µM),relative viability (IDH-C35 + Vorinostat; first compound 0.08 µM),relative viability (IDH-C35 + Vorinostat; first compound 0.253 µM),relative viability (IDH-C35 + Vorinostat; first compound 0.8 µM),relative viability (IDH-C35 + Vorinostat; first compound 2.53 µM),relative viability (IDH-C35 + Vorinostat; first compound 8 µM)
NCI-H1437,0.357,0.348,0.284,0.296,0.303,0.629,0.456,0.451,0.639,0.548,0.967,0.928,0.875,0.949,1.09,0.931,0.851,0.869,0.843,0.858
NCI-H1650,0.344,0.351,0.374,0.327,0.347,0.227,0.205,0.229,0.213,0.213,1.05,1.08,0.973,1.04,1.06,0.685,0.491,0.569,0.588,0.84
NCI-H1651,0.54,0.562,0.493,0.532,0.508,0.884,0.999,0.878,0.992,0.876,0.807,0.857,0.822,0.804,0.786,0.539,0.592,0.531,0.513,0.543
NCI-H1666,0.702,0.641,0.734,0.591,0.636,0.769,0.881,0.914,0.872,0.691,1.04,1.16,1.05,0.977,1.08,1.04,0.997,1.08,1.04,0.971
NCI-H1734,0.328,0.396,0.349,0.307,0.322,1.06,1.17,0.85,0.892,0.914,0.773,0.517,0.641,0.614,0.562,0.712,0.846,0.83,0.826,0.815
NCI-H1755,0.452,0.462,0.412,0.424,0.45,0.885,1.04,0.881,0.971,0.933,0.876,0.952,0.941,0.877,0.967,0.738,0.8,0.82,0.809,0.725
NCI-H1915,0.563,0.574,0.522,0.532,0.539,0.939,0.977,0.963,0.961,0.995,0.959,0.92,0.836,0.884,1.01,0.499,0.52,0.488,0.451,0.574
NCI-H1975,0.624,0.706,0.66,0.623,0.699,0.383,0.376,0.421,0.354,0.315,0.942,1,1,0.869,1.08,0.73,0.726,0.701,0.716,0.649
NCI-H1993,0.689,0.731,0.709,0.597,0.75,1.07,1.03,1.16,1.19,1.24,1.07,0.901,0.965,0.853,0.932,0.726,0.717,0.77,1.08,0.897
NCI-H2009,0.222,0.206,0.221,0.319,0.175,1.13,1.01,1.04,1.03,0.874,0.966,1.03,1.06,1.09,1.11,0.762,0.688,0.758,0.69,0.681
NCI-H2023,0.305,0.375,0.296,0.402,0.491,0.998,1.13,1.01,0.349,0.911,0.76,0.731,0.705,0.691,0.659,0.667,0.799,0.68,0.634,0.636
NCI-H2085,0.495,0.439,0.431,0.451,0.492,1.02,1.05,0.981,0.982,0.871,0.923,0.726,0.8,0.89,0.862,0.88,0.784,0.81,0.86,0.719
NCI-H2087,0.244,0.264,0.193,0.16,0.223,0.846,0.959,0.805,0.863,0.654,0.822,0.804,0.927,0.923,0.937,0.821,0.715,0.74,0.624,0.633
NCI-H2126,0.356,0.335,0.368,0.327,0.369,1.14,1.12,1.15,1.09,1.07,1.05,1.02,1.01,1,1.02,0.683,0.806,0.698,0.5,0.61
NCI-H2228,0.794,0.768,0.779,0.793,0.933,0.968,0.857,0.898,1.09,0.818,0.421,0.523,0.473,0.505,0.469,0.64,0.632,0.563,0.754,0.648
NCI-H2347,0.426,0.4,0.431,0.36,0.445,0.912,1.02,0.929,1.08,0.878,0.834,0.813,0.801,0.621,0.875,0.4,0.682,0.531,0.59,0.656
